Assay results published in patent US10414771B2, “Compounds useful for inhibiting metastasis from cancer and methods using same” (Drexel University, priority 2010, dated 2019).
Values joined by “and” are separate entries in the source; they are usually repeats but may differ in a detail not shown here. Equal entries are not always repeated. Where two headings read alike, the source gives them in different places.

Assays:
Format in all cases: cell-based
CX3CR1 [1] = biological target: T1, CX3CR1 (Homo sapiens, UniProt P49238); assay: Inhibition of FKN-induced ERK phosphorylation in MDA-436 breast cancer cells over-expressing CX3CR1 (Western blot); design: expressed in transfected cells; host or cells: MDA-MB-436 human breast cancer cells; conditions: for inhibition of ERK phosphorylation induced by FKN: compound at 10 μM, incubated 30 minutes, MDA-436 cells over-expressing CX3CR1, 50 nM FKN for 5 minutes
T1 sequence (P49238 1-355): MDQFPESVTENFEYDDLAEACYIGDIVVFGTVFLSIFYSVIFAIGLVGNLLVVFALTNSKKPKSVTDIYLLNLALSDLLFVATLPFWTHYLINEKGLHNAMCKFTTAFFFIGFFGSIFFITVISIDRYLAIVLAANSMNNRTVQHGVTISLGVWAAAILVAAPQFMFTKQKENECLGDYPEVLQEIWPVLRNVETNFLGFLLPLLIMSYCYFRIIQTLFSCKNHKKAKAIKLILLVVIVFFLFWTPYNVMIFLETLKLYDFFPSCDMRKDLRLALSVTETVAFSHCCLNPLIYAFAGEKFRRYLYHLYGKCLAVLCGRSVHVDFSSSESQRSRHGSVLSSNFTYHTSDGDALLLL
Protocol: Cells were serum starved for 4 hours and then exposed to 50 nM recombinant human FKN (R&D systems, Minneapolis, Minn.) for indicated time points.
(§1) Cell lysates were obtained and SDS-polyacrylamide gel electrophoresis and western blot analysis were performed as previously described (Shulby et al., 2004, Cancer Res. 64:4393-98), with few modifications. Membranes were probed with an antibody against CX3CR1 (0.5 μg/ml, Torrey Pines Biolabs, East Orange, N.J.) and actin (Sigma, St. Louis, Mo.) using 5% milk as a blocking reagent. Membranes were also probed with antibodies targeting phospho-p44/42 MAPK (Thr202/Tyr204, Cell Signaling) and total p44/42 MAPK (Cell Signaling). All primary antibody incubations were performed overnight at 4° C. Primary antibody binding was detected using horseradish peroxidase-conjugated anti-rabbit secondary antibody (Pierce, Rockford, Ill.). Chemiluminescent signals were obtained using SuperSignal West Femto reagents (Pierce) and detected with the Fluorochem 8900 imaging system and relative software (Alpha Innotech, San Leandro, Calif.).
Compound 1 was then evaluated for its ability to inhibit the activation of downstream intracellular pathways by CX3CR1 upon stimulation with soluble FKN. In these experiments, MDA-MB 436 human breast cancer cells, engineered to over-express CX3CR1, were treated with 50 nM FKN for 5 minutes after being incubated with compound 1 for 30 minutes.

CX3CR1 [2] = biological target: T1, CX3CR1; assay: Calcium mobilization (Ca2+) assay, agonist mode, HEK293T cells stably expressing human CX3CR1; design: Expression vector containing full-length human CX3CR1 cDNA; host or cells: HEK293T; conditions: for stimulation of calcium flux (agonist activity): HEK293T cells expressing human CX3CR1
Protocol: (§2) Cells: Mammalian HEK293T cells stably expressing human CX3CR1 (Multispan, Hayward, Calif.)—Host cell: HEK293T; Transfection: Expression vector containing full-length human CX3CR1 cDNA (GenBank Accession Number NM_001337) with FLAG tag sequence at N-terminus; Propagation Medium: DMEM, 10% FBS, 1 μg/mL puromycin.
(§3) Compounds were reconstituted in DMSO at 10 mM. Control agonist CX3CL1 was from Peprotech (Cat #300-31).
(§4) Calcium assay: Cells expressing the CX3CR1 receptor were transiently transfected with the chimeric G protein Gαqi5 and seeded in 384-well plates at appropriate densities and cultured overnight. Calcium assays were conducted according to the manufacturer's protocols. The calcium dye loading buffer was added to the cells and incubated for one hour at 37° C. Calcium flux was monitored for 90 seconds with compound injected into the wells at 20th second. In antagonist mode, carrier or compounds were preincubated with the cells for 30 minutes before calcium flux measurement with the control agonist at EC80 concentration (0.04 μM).
(§5) Data analysis: Calcium assay results were expressed as “RFU” and “% Increase in RFU” (FIG. 17). Data were represented in Mean±SEM. Dose-response curves were fitted using “Sigmoidal dose-response (variable slope)” function in Prism 4 without constraint. EC50, EC80 and IC50 values were derived from “% Increase in RFU”.

p-ERK1/2 = p-ERK1/2 inhibition by Western blot analysis
Protocol: as §1

CX3CR1 [3] = biological target: T1, CX3CR1; assay: Calcium mobilization (Ca2+) assay, antagonist mode (CX3CL1 at EC80), HEK293T cells stably expressing human CX3CR1; design: Expression vector containing full-length human CX3CR1 cDNA; host or cells: HEK293T; conditions: for % Increase in RFU / RFU: antagonist mode
Protocol: as §2, §3, §4, §5

[4] = agonist mode, Log [Compounds] M −4.5, listed as JMS-16
[5] = agonist mode, Log [Compounds] M −4.8, listed as JMS-16
[6] = agonist mode, Log [Compounds] M −5.1, listed as JMS-16
[7] = agonist mode, Log [Compounds] M −5.4, listed as JMS-16
[8] = agonist mode, Log [Compounds] M −5.7, listed as JMS-16
[9] = agonist mode, Log [Compounds] M −6.0, listed as JMS-16
[10] = agonist mode, Log [Compounds] M −6.3, listed as JMS-16
[11] = agonist mode, Log [Compounds] M −6.6, listed as JMS-16
[12] = CX3CL1 at EC80 (0.04 μM), Log [Compounds] M −4.5, listed as JMS-16
[13] = CX3CL1 at EC80 (0.04 μM), Log [Compounds] M −4.8, listed as JMS-16
[14] = CX3CL1 at EC80 (0.04 μM), Log [Compounds] M −5.1, listed as JMS-16
[15] = CX3CL1 at EC80 (0.04 μM), Log [Compounds] M −5.4, listed as JMS-16
[16] = CX3CL1 at EC80 (0.04 μM), Log [Compounds] M −5.7, listed as JMS-16
[17] = CX3CL1 at EC80 (0.04 μM), Log [Compounds] M −6.0, listed as JMS-16
[18] = CX3CL1 at EC80 (0.04 μM), Log [Compounds] M −6.3, listed as JMS-16
[19] = CX3CL1 at EC80 (0.04 μM), Log [Compounds] M −6.6, listed as JMS-16
[20] = control agonist, Log [CX3CL1] M −6.7
[21] = control agonist, Log [CX3CL1] M −7.2
[22] = control agonist, Log [CX3CL1] M −7.7
[23] = control agonist, Log [CX3CL1] M −8.1
[24] = control agonist, Log [CX3CL1] M −8.6
[25] = control agonist, Log [CX3CL1] M −9.1
[26] = control agonist, Log [CX3CL1] M −9.6
[27] = control agonist, Log [CX3CL1] M −10.0
[28] = EC80 CX3CL1 (0.04 μM) alone, no test compound

## N#CC(CCCN1CCC(O)(c2ccc(Cl)cc2)CC1)(c1ccccc1)c1ccccc1 [Compound 1, 5-(4-(4-chlorophenyl)-4-hydroxypiperidin-1-yl)-2,2-diphenylpentanenitrile]
CX3CR1 [1]
  CX3CR1 antagonism (in words): weakly potent
  inhibition of ERK phosphorylation induced by FKN: inhibits ERK phosphorylation
CX3CR1 [1]; listed as compound 1
  inhibition of ERK phosphorylation induced by FKN: able to inhibit the activation of the MAPK pathway
  CX3CR1 antagonism (in words): weak CX3CR1 antagonism

## O=c1c2cccn2c2ccccc2n1CCCN1CCC(O)(c2ccc(Cl)cc2)CC1 [Compound 3, 5-(3-(4-(4-chlorophenyl)-4-hydroxypiperidin-1-yl)propyl)pyrrolo[1,2-a]quinoxalin-4(5H)-one]
CX3CR1 [2]
  stimulation of calcium flux (agonist activity): agonist activity at the two highest concentrations
CX3CR1 [2]; [4]
  % Increase in RFU: 127.9% and 118.0% and 112.4%
  RFU: 31.7 RFU and 30.7 RFU and 29.0 RFU
CX3CR1 [2]; [5]
  % Increase in RFU: 80.2% and 85.0% and 84.7%
  RFU: 22.1 RFU and 22.5 RFU and 23.3 RFU
CX3CR1 [2]; [6]
  % Increase in RFU: 60.1% and 70.3% and 64.9%
  RFU: 16.5 RFU and 20.3 RFU and 18.8 RFU
CX3CR1 [2]; [7]
  % Increase in RFU: 61.1% and 62.3% and 60.5%
  RFU: 15.5 RFU and 16.9 RFU and 17.1 RFU
CX3CR1 [2]; [8]
  % Increase in RFU: 57.2% and 61.7% and 60.7%
  RFU: 15.2 RFU and 17.8 RFU and 17.1 RFU
CX3CR1 [2]; [9]
  % Increase in RFU: 58.3% and 63.2% and 63.0%
  RFU: 15.6 RFU and 18.7 RFU and 18.6 RFU
CX3CR1 [2]; [10]
  % Increase in RFU: 59.0% and 66.2% and 61.9%
  RFU: 16.0 RFU and 18.2 RFU and 19.5 RFU
CX3CR1 [2]; [11]
  % Increase in RFU: 61.6% and 62.1% and 60.1%
  RFU: 15.5 RFU and 18.6 RFU and 17.8 RFU
p-ERK1/2
  EC50: ~0.01 µM
CX3CR1 [3]; 30 min preincubation, CX3CL1 at EC80 (0.04 μM), read-out: IC50, inhibition of CX3CL1-evoked calcium flux
  IC50: 21 µM
CX3CR1 [3]; [12]
  % Increase in RFU: 4.4% and 3.5% and 2.2%
  RFU: 1.2 RFU and 0.9 RFU and 0.6 RFU
CX3CR1 [3]; [13]
  % Increase in RFU: 27.9% and 23.6% and 26.7%
  RFU: 9.5 RFU and 7.6 RFU and 8.5 RFU
CX3CR1 [3]; [14]
  % Increase in RFU: 45.0% and 38.6% and 38.7%
  RFU: 15.0 RFU and 13.0 RFU and 12.3 RFU
CX3CR1 [3]; [15]
  % Increase in RFU: 52.1% and 45.7% and 41.1%
  RFU: 15.5 RFU and 14.4 RFU and 13.5 RFU
CX3CR1 [3]; [16]
  % Increase in RFU: 48.9% and 53.1% and 47.0%
  RFU: 15.6 RFU and 17.9 RFU and 14.4 RFU
CX3CR1 [3]; [17]
  % Increase in RFU: 58.1% and 54.8% and 53.3%
  RFU: 18.4 RFU and 18.6 RFU and 18.2 RFU
CX3CR1 [3]; [18]
  % Increase in RFU: 46.4% and 46.2% and 42.0%
  RFU: 15.7 RFU and 14.6 RFU and 14.5 RFU
CX3CR1 [3]; [19]
  % Increase in RFU: 45.9% and 41.3% and 44.0%
  RFU: 13.6 RFU and 14.0 RFU and 14.4 RFU

B1: CX3CL1: Control agonist CX3CL1 from Peprotech; chemokine ligand of CX3CR1, also called fractalkine or FKN (protein, listed as Homo sapiens)
chain: MAPISLSWLLRLATFCHLTVLLAGQHHGVTKCNITCSKMTSKIPVALLIHYQQNQASCGKRAIILETRQHRLFCADPKEQWVKDAMQHLDRQAAALTRNGGTFEKQIGEVKPRTTPAAGGMDESVVLEPEATGESSSLEPTPSSQEAQRALGTSPELPTGVTGSSGTRLPPTPKAQDGGPVGTELFRVPPVSTAATWQSSAPHQPGPSLWAEAKTSEAPSTQDPSTQASTASSPAPEENAPSEGQRVWGQGQSPRPENSLEREEMGPVPAHTDAFQDWGPGSMAHVSVVPVSSEGTPSREPVASGSWTPKAEEPIHATMDPQRLGVLITPVPDAQAATRRQAVGLLAFLGLLFCLGVAMFTYQSLQGCPRKMAGEMAEGLRYIPRSCGSNSYVLVPV
CX3CR1 [2]
  stimulation of calcium flux (agonist activity): dose-dependent stimulation of calcium flux
CX3CR1 [2]; [20]
  % Increase in RFU: 59.0% and 61.1%
  RFU: 22.2 RFU and 22.7 RFU
CX3CR1 [2]; [21]
  % Increase in RFU: 59.9% and 52.7%
  RFU: 21.4 RFU and 20.1 RFU
CX3CR1 [2]; [22]
  % Increase in RFU: 42.3% and 35.6%
  RFU: 15.5 RFU and 12.4 RFU
CX3CR1 [2]; [23]
  % Increase in RFU: 25.3% and 14.3%
  RFU: 9.3 RFU and 4.8 RFU
CX3CR1 [2]; [24]
  % Increase in RFU: 9.6% and 11.8%
  RFU: 3.3 RFU and 4.0 RFU
CX3CR1 [2]; [25]
  % Increase in RFU: 12.2% and 11.0%
  RFU: 4.4 RFU and 4.1 RFU
CX3CR1 [2]; [26]
  % Increase in RFU: 8.3% and 5.1%
  RFU: 2.9 RFU and 1.9 RFU
CX3CR1 [2]; [27]
  % Increase in RFU: 7.6% and 4.7%
  RFU: 2.6 RFU and 1.6 RFU
CX3CR1 [3]; [28]
  % Increase in RFU: 45.9% and 37.2% and 45.8%
  RFU: 16.0 RFU and 10.9 RFU and 15.8 RFU
